Laboratory results published in patent publication US8779142B2, “Azabicyclo compound and salt thereof” (Taiho Pharmaceutical Co., Ltd., priority 2009, dated 2014).
pIC50: −log10 of the molar value. Like-named read-outs stand apart in the source and are kept apart here.

How the values were obtained:
SK-BR-3 cells = assay: Measurement of cell growth inhibition (crystal violet staining method); assay type: cell-based
[1] = molecular target: human HSP90 alpha protein (HSP90 N-terminal protein, amino acids 2-236) (Homo sapiens (Human), UniProt P07900); assay: Measurement of HSP90-binding activity (AlphaScreen competitive assay, biotin-labeled geldanamycin); settings: read-out: HSP-binding activity IC50
[2] = Homo sapiens, breast cancer SK-BR-3 cells, 72 hr culture with test substance
[3] = concentration inhibiting binding of biotin-labeled geldanamycin (40 nM) to purified HSP90 to 50% of control

Molecule	pIC50 (SK-BR-3 cells; [2])	pIC50 [1, 3]	further results
Cc1cn(-c2ccc(C(N)=O)c(S[C@H]3CC[C@H](O)CC3)c2)c2nccc(-c3cnc4ccccc4c3)c12 [Example 67, 2-(Trans-4-hydroxycyclohexylthio)-4-{3-methyl-4-(quinolin-3-yl)-1H-pyrrolo[2,3-b]pyridin-1-yl}benzamide]	6.29	–	–
CC(C)c1nn(-c2ccc(C(N)=O)c(N(O)C3CCCCC3)c2)c2nccc(-n3cnc(-c4cnn(C)c4)c3)c12 [Example 89, 2-(Hydroxycyclohexylamino)-4-{3-isopropyl-4-(4-(1-methyl-1H-pyrazol-4-yl)-1H-imidazol-1-yl)-1H-pyrazolo[3,4-b]pyridin-1-yl}benzamide]	8.00	7.15	–
C=C(C)c1cc(C(N)=O)ccc1-n1nc(C(F)(F)F)c2c(-n3cnc(-c4cnn(C)c4)c3)ccnc21 [Example 174, 4-{4-(4-(1-Methyl-1H-pyrazol-4-yl)-1H-imidazol-1-yl)-3-(trifluoromethyl)-1H-pyrazolo[3,4-b]pyridin-1-yl}-3-(prop-1-en-2-yl)benzamide]	6.42	6.49	–
2-(4-Hydroxycyclohexylamino)-4-{3-methyl-4-(4-(pyridin-3-yl)-1H-imidazol-1-yl)-1H-pyrazolo[2,3-b]pyridin-1-yl}benzamide [Example 98]	–	–	pIC50 [1]: 7.15; pIC50 (SK-BR-3 cells): 8.00
CC(C)c1nn(-c2ccc(C(N)=O)c(N[C@H]3CC[C@H](O)CC3)c2)c2nccc(-n3ccnc3)c12 [Example 36, 4-{4-(1H-Imidazol-1-yl)-3-isopropyl-1H-pyrazolo[3,4-b]pyridin-1-yl}-2-(trans-4-hydroxycyclohexylamino)benzamide]	5.49	5.73	–
Cc1cc(C(N)=O)ccc1-n1nc(C(F)(F)F)c2c(-n3cnc(-c4cccnc4)c3)ccnc21 [Example 175, 3-Methyl-4-{4-(4-(pyridin-3-yl)-1H-imidazol-1-yl)-3-(trifluoromethyl)-1H-pyrazolo[3,4-b]pyridin-1-yl}benzamide]	6.54	6.43	–
Cc1nn(-c2ccc(C(N)=O)c(N[C@H]3CC[C@H](O)CC3)c2)c2nccc(-c3cnc4ccccc4c3)c12 [Example 2, 2-(Trans-4-hydroxycyclohexylamino)-4-{4-(quinolin-3-yl)-3-methyl-1H-pyrazolo[3,4-b]pyridin-1-yl}benzamide]	7.52	6.89	–
Cn1cc(-c2cn(-c3ccnc4c3c(C(F)(F)F)nn4-c3ccc(C(N)=O)cc3Cl)cn2)cn1 [Example 153, 3-Chloro-4-{4-(4-(1-methyl-1H-pyrazol-4-yl)-1H-imidazol-1-yl)-3-(trifluoromethyl)-1H-pyrazolo[3,4-b]pyridin-1-yl}benzamide]	6.62	6.89	–
CCn1cc(-c2cn(-c3ccnc4c3c(C(F)(F)F)nn4-c3ccc(C(N)=O)cc3N)cn2)cn1 [Example 184, 3-Amino-4-{4-(4-(1-ethyl-1H-pyrazol-4-yl)-1H-imidazol-1-yl)-3-(trifluoromethyl)-1H-pyrazolo[3,4-b]pyridin-1-yl}benzamide]	6.39	6.64	–
CC(C)c1nn(-c2ccc(C(N)=O)cc2Cl)c2nccc(-n3cnc(-c4ccc(C(N)=O)cc4)c3)c12 [Example 152, 4-{4-(4-(4-Carbamoylphenyl)-1H-imidazol-1-yl)-3-isopropyl-1H-pyrazolo[3,4-b]pyridin-1-yl}-3-chlorobenzamide]	5.89	6.00	–
CC(C)c1nn(-c2ccc(C(N)=O)c(N)c2)c2nccc(-n3cnc(-c4cnn(C)c4)c3)c12 [Example 106, 2-Amino-4-{3-isopropyl-4-(4-(1-methyl-1H-pyrazol-4-yl)-1H-imidazol-1-yl)-1H-pyrazolo[3,4-b]pyridin-1-yl}benzamide]	6.19	6.47	–
CCNc1c(C(N)=O)ccc(-n2nc(C(C)C)c3c(-n4cnc(-c5cnn(C)c5)c4)ccnc32)c1CC [Example 133, 3-Ethyl-2-(ethylamino)-4-{3-isopropyl-4-(4-(1-methyl-1H-pyrazol-4-yl)-1H-imidazol-1-yl)-1H-pyrazolo[3,4-b]pyridin-1-yl}benzamide]	6.82	6.80	–
CC(C)c1nn(-c2ccc(C(N)=O)c(NC3CCC(O)CC3)c2)c2nccc(-n3cnc(-c4ccsc4)c3)c12 (stereo not shown) [Example 91]	–	6.37	pIC50 (SK-BR-3 cells; breast cancer SK-BR-3 cells, 72 hr culture with test substance): 7.15
CCNc1cc(-n2nc(C(F)(F)F)c3c(-n4cnc(-c5cnn(C)c5)c4)ccnc32)ccc1C(N)=O [Example 161, 2-(Ethylamino)-4-{4-(4-(1-methyl-1H-pyrazol-4-yl)-1H-imidazol-1-yl)-3-(trifluoromethyl)-1H-pyrazolo[3,4-b]pyridin-1-yl}benzamide]	7.22	6.77	–
CC(C)c1nn(-c2ccc(C(N)=O)c(N[C@H]3CC[C@H](O)CC3)c2)c2nccc(-c3cnc4c(ccn4C)c3)c12 [Example 14, 2-(Trans-4-hydroxycyclohexylamino)-4-{3-isopropyl-4-(1-methyl-1H-pyrrolo[2,3-b]pyridin-5-yl)-1H-pyrazolo[3,4-b]pyridin-1-yl}benzamide]	6.74	6.16	–
NC(=O)c1ccc(-n2nc(C(F)(F)F)c3c(-n4cnc(-c5cccnc5)c4)ccnc32)cc1N [Example 176, 2-Amino-4-{4-(4-(pyridin-3-yl)-1H-imidazol-1-yl)-3-(trifluoromethyl)-1H-pyrazolo[3,4-b]pyridin-1-yl}benzamide]	6.39	6.38	–
COc1ccc(-c2cn(-c3ccnc4c3c(C(C)C)nn4-c3ccc(C(N)=O)c(N(O)C4CCCCC4)c3)cn2)cc1 [Example 83, 2-(Hydroxycyclohexylamino)-4-{3-isopropyl-4-(4-(4-methoxyphenyl)-1H-imidazol-1-yl)-1H-pyrazolo[3,4-b]pyridin-1-yl}benzamide]	6.96	6.40	–
Cn1cc(-c2cn(-c3ccnc4c3c(C(F)(F)F)nn4-c3ccc(C(N)=O)c(N)c3)cn2)cn1 [Example 157, 2-Amino-4-{4-(4-(1-methyl-1H-pyrazol-4-yl)-1H-imidazol-1-yl)-3-(trifluoromethyl)-1H-pyrazolo[3,4-b]pyridin-1-yl}benzamide]	6.72	6.89	–
CC(C)c1nn(-c2ccc(C(N)=O)c(NC(C)(C)C)c2)c2nccc(-n3cnc(-c4cnn(C)c4)c3)c12 [Example 112, 2-(Tert-butylamino)-4-{3-isopropyl-4-(4-(1-methyl-1H-pyrazol-4-yl)-1H-imidazol-1-yl)-1H-pyrazolo[3,4-b]pyridin-1-yl}benzamide]	7.40	6.60	–
CC(C)c1nn(-c2ccc(C(N)=O)c(N[C@H]3CC[C@H](O)CC3)c2)c2nccc(-c3cnc4[nH]ccc4c3)c12 [Example 13, 2-(Trans-4-hydroxycyclohexylamino)-4-{3-isopropyl-4-(1H-pyrrolo[2,3-b]pyridin-5-yl)-1H-pyrazolo[3,4-b]pyridin-1-yl}benzamide]	6.82	6.37	–
CCc1cc(C(N)=O)ccc1-n1nc(C(F)(F)F)c2c(-n3cnc(-c4cnn(C)c4)c3)ccnc21 [Example 155, 3-Ethyl-4-{4-(4-(1-methyl-1H-pyrazol-4-yl)-1H-imidazol-1-yl)-3-(trifluoromethyl)-1H-pyrazolo[3,4-b]pyridin-1-yl}benzamide]	7.40	6.96	–
CC(C)c1nn(-c2ccc(C(N)=O)c(Nc3ccc(C(=O)N4CCCC4)cc3)c2)c2nccc(-c3cnc4ccccc4c3)c12 [Example 34, 4-{3-Isopropyl-4-(quinolin-3-yl)-1H-pyrazolo[3,4-b]pyridin-1-yl}-2-{4-(pyrrolidine-1-carbonyl)phenylamino}benzamide]	7.30	6.24	–
CC(C)Nc1cc(-n2nc(C(F)(F)F)c3c(-n4cnc(-c5cnn(C)c5)c4)ccnc32)ccc1C(N)=O [Example 160, 2-(Isopropylamino)-4-{4-(4-(1-methyl-1H-pyrazol-4-yl)-1H-imidazol-1-yl)-3-(trifluoromethyl)-1H-pyrazolo[3,4-b]pyridin-1-yl}benzamide]	7.70	6.80	–
COc1cc2ccn(-c3ccc(C(N)=O)c(Nc4ccccc4)c3)c2cc1OC [Comparative Example 4, reference compound]	–	–	pIC50 (SK-BR-3 cells; Homo sapiens, SK-BR-3, 72 h): < 5.00
COc1ccc2c(c1)cc(C)n2-c1ccc(C(N)=O)c(Nc2ccccc2)c1 [Comparative Example 5, reference compound]	–	–	pIC50 (SK-BR-3 cells; Homo sapiens, SK-BR-3, 72 h): < 5.00
Cc1cn(-c2ccc(C(N)=O)c(N[C@H]3CC[C@H](N)CC3)c2)c2nccc(-c3cnc4ccccc4c3)c12 [Example 61, 2-(Trans-4-aminocyclohexylamino)-4-{3-methyl-4-(quinolin-3-yl)-1H-pyrrolo[2,3-b]pyridin-1-yl}benzamide]	6.44	–	–
COc1ccc(-c2ccnc3c2c(C(C)C)nn3-c2ccc(C(N)=O)c(N[C@H]3CC[C@H](O)CC3)c2)cn1 [Example 18, 2-(Trans-4-hydroxycyclohexylamino)-4-{3-isopropyl-4-(6-methoxypyridin-3-yl)-1H-pyrazolo[3,4-b]pyridin-1-yl}benzamide]	6.23	–	–
COc1cc(C(N)=O)ccc1-n1nc(C(C)C)c2c(-n3cnc(-c4cnn(C)c4)c3)ccnc21 [Example 128, 4-{3-Isopropyl-4-(4-(1-methyl-1H-pyrazol-4-yl)-1H-imidazol-1-yl)-1H-pyrazolo[3,4-b]pyridin-1-yl}-3-methoxybenzamide]	6.82	–	–
CC(C)c1nn(-c2ccc(C(N)=O)c(N[C@H]3CC[C@H](O)CC3)c2)c2nccc(-c3cnc4ccccc4c3)c12 [Example 6, 2-(Trans-4-hydroxycyclohexylamino)-4-{3-isopropyl-4-(quinolin-3-yl)-1H-pyrazolo[3,4-b]pyridin-1-yl}benzamide]	7.52	–	–
COc1cc2ccn(-c3ccc(C#N)c(Nc4ccccc4)c3)c2cc1OC [Comparative Example 3, reference compound]	< 5.00	–	–
